Measurements from US11458126B2, “DHODH inhibitor for use in treating hematologic cancers” (PTC THERAPEUTICS, INC., priority 2017, dated 2022).

Key:
[1] = target: T1, DHODH (mitochondria isolated from K562 cells) (Homo sapiens, UniProt Q02127); test: DHODH activity with purified mitochondria as enzyme source; assay type: biochemical; conditions: 30 minutes of treatment (FIG. 2c)
T1 construct: Mitochondria were isolated from K562 cells in log phase growth with a Dounce homogenizer; endogenous in cells; host or cells: K562 cells (isolated mitochondria)
T1 sequence (Q02127 whole entry): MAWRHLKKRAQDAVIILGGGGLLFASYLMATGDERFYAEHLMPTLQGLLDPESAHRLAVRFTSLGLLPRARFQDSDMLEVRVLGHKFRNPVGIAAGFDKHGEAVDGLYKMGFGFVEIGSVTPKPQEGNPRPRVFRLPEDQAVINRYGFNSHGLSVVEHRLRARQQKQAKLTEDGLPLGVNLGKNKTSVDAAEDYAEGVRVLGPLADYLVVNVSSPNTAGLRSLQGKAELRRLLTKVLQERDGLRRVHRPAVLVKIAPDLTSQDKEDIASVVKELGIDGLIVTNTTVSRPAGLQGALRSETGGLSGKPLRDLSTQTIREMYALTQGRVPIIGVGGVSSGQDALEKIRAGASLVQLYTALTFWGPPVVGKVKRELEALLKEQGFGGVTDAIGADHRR

MOLM-13 AML cells = test: MOLM-13 human acute myeloid leukemia xenograft model; assay type: in vivo; conditions: nude mice, flank tumor; vehicle 7 days (FIG. 6)
Procedure: Human Xenograft Model: HT1080 or MOLM-13 tumor cells in log phase growth (5-10×10^6 cells/mouse, depending on cell lines) were implanted subcutaneously in male athymic nude mice. When the average tumor size reached the indicated size, mice were randomly divided into groups (10-15 mice/group) and administered vehicle or test compounds orally, once a day or twice per day as indicated. Tumor size was measured using calipers at periodic intervals during the study and tumor volume was calculated as L×W^2/2, in which L represents the longest and W is the shortest diameter of the tumors. At the end of the experiments, tumors were excised and homogenized on ice in Tris-HCl buffer containing a cocktail of proteinase inhibitors using a Powergen homogenizer fitted with Omni-Tip disposable/reusable probes (both from Fisher Scientific). Intratumoral levels of growth factors and proteins were measured using commercially available ELISA kits (R&D Systems). Protein concentrations of the homogenates were measured (Bio-Rad protein assay kit) and intratumoral growth factor levels normalized to the total protein concentration.

[2] = target: panel of biologically important human kinases; test: Kinase panel; assay type: biochemical; conditions: off-target panel
Excerpt: The side-effects associated with these DHODH inhibitors are believed to be due to off-target activities such as kinase inhibition [21; 22]. […] The antiviral compound GSK983 was recently reported as a DHODH inhibitor [23]. […] FACS analysis was done on FACSCalibur (FIG. 8).

Compound: COc1ccc([C@H]2c3[nH]c4ccc(Cl)cc4c3CCN2C(=O)Oc2ccc(Cl)cc2)cc1 [Cpd 1, 4-chlorophenyl (S)-6-chloro-1-(4-methoxyphenyl)-1,3,4,9-tetrahydro-2H-pyrido[3,4-b]indole-2-carboxylate]
- inhibition of DHODH activity (orotate production by LC-MS/MS) [1]: more potently than did teriflunomide and with similar potency as brequinar
- median time to reach a tumor volume of 1000 mm^3 (MOLM-13 AML cells): 23 days
- kinase enzyme activity [2]: lack of inhibition of kinase enzyme activity
